# Experimental data from patent publication US20240360091A1, “GLUN2B-SUBUNIT SELECTIVE ANTAGONISTS OF THE N-METHYL-D-ASPARTATE RECEPTORS WITH ENHANCED POTENCY AT ACIDIC PH” (Emory University, priority 2021, published 2024).
# Where two headings read alike, the source gives them in different places.
# Columns and labels:
# [1] = target: human GluN1/GluN2B (Homo sapiens (Human), UniProt Q05586+Q13224); assay: Two electrode voltage-clamp recordings from Xenopus laevis oocytes, GluN2B potency and pH dependence; assay type: cell-based; settings: for pH Boost: ratio of IC50 at pH 7.6 to IC50 at pH 6.9
# human GluN1/GluN2B, sequence (Q13224 27-1484, other chains not shown): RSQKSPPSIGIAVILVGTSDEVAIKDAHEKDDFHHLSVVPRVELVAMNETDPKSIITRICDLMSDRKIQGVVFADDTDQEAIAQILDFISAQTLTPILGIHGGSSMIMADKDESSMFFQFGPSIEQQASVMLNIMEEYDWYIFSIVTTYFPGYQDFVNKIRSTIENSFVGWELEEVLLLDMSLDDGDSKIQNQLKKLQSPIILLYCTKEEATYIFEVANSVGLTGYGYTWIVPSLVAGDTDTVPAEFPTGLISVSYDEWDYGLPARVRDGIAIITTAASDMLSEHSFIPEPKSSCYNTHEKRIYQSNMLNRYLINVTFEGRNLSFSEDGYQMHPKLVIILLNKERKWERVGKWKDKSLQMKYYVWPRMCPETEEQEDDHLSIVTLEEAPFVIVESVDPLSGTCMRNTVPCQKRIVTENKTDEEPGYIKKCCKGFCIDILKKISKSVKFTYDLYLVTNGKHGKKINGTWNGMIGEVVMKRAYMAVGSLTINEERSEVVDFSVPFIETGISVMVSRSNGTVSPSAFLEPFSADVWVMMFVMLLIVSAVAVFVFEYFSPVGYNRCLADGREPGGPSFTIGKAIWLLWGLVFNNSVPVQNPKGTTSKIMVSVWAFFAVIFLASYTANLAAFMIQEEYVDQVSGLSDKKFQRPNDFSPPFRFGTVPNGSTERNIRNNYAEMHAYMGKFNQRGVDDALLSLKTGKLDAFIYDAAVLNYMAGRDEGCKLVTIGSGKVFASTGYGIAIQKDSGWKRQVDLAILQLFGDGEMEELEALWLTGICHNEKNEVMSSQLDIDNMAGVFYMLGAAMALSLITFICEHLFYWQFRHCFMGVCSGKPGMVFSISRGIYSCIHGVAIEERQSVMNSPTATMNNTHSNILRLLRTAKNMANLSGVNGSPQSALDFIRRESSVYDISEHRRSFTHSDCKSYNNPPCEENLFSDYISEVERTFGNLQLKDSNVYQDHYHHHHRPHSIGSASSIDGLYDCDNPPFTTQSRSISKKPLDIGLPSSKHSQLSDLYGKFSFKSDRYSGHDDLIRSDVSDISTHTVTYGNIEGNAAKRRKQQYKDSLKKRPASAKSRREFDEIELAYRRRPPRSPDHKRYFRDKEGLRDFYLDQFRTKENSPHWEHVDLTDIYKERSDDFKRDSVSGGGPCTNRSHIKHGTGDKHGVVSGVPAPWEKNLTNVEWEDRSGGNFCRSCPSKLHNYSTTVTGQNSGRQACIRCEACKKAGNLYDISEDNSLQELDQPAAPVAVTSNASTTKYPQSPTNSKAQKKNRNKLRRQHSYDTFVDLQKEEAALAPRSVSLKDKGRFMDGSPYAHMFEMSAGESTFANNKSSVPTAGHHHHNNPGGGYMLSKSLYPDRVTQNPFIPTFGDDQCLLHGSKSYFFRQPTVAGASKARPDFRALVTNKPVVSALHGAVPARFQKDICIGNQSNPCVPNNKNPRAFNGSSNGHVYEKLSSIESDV
# Procedure: Two Electrode Voltage-Clamp Recordings from Xenopus laevis Oocytes
# Stage V-VI Xenopus laevis unfertilized oocytes were purchased from Ecocyte (Austin, Texas) and injected with 5 ng of GluN1 and 10 ng of GluN2B cRNAs. The cDNAs for human GluN1 and GluN2B, encoding NCBI reference sequences NM_007327.3 and NM_000834.3, respectively, were linearized and cRNAs made as previously described (Traynelis et al., J Neurosci, 1998, 18(16):6163-75). After injection, the oocytes were incubated in Barth's culture solution (88 mM NaCl, 1 mM KCl, 2.4 mM NaHCO3, 10 mM HEPES, 0.82 mM MgSO4, 0.33 mM Ca(NO3)2, 0.41 mM CaCl2), 10 U/mL PenStrep, and 0.1 mg/mL gentamycin, pH 7.4) at 18° C. Two electrode voltage-clamp (TEVC) recordings were made at 22-23° C., 2-7 days after the injection, using Warner OC725C amplifiers (VHOLD=−40 mV). Briefly, the oocytes were perfused in a recording solution (90 mM NaCl, 1 mM KCl, 10 mM HEPES, 0.01 mM EDTA, and 0.5 mM BaCl2) adjusted to either pH 7.6 or 6.9 by addition of NaOH or HCl, respectively (pH 6.9 solutions were prepared by addition of HCl to pH 7.6 solutions to maintain an equal concentration of Na^+ ions in both solutions). Concentration-response curves of the compounds were obtained by application of increasing concentrations of each individual compound until steady state conditions were obtained, in the presence of saturating agonist concentrations (i.e., 100 μM glutamate and 30 μM glycine). In general, oocyte recordings were made from 4-10 oocytes per experiment (i.e., oocyte injection cycle) from ≥two experiments. The concentration-response relationship for each oocyte was fit by equation (1),
# Percent Response=(100−minimum)/(1+([concentration]/IC50)^nH)+minimum (1)
# where minimum is the residual response in saturating concentration of each individual compound (constrained to be ≥0), and IC50 is the concentration of compound that causes half-maximal inhibition, and nH is the Hill slope.
# [2] = test system: horizontal locomotor activity of mice; assay: Locomotor activity; assay type: in vivo, mouse; settings: 0.3 mg/kg IP, two hours
# Description: (§1) The locomotor and rotarod studies were approved by the Georgia State University IACUC, an AAALAC accredited institution under the supervision of licensed veterinarians. Mice were group housed, provided nestlets and shelters with access to food pellets and water ad libitum under a 12-hour light/dark cycle.
# For locomotor activity measurements, mice (C57B16, >90 days old, Jackson Labs) were placed in a closed (with light on) activity monitoring box for one hour to habituate prior to drug testing. After one hour, animals were removed and injected (IP) with drug and then returned to the activity monitoring box and total locomotor activity was monitored for two hours. The total number of light beam breaks in the cage (horizontal) was determined by a computer and results averaged for each drug. Results were analyzed by ANOVA and Dunnett's post hoc test to compare horizontal activity of drug-treated groups to vehicle controls. Male animals were used for these behavioral tests given only male mice were used in the MCAO transient ischemia studies.
# [3] = test system: motor coordination of mice on rotarod; assay: Rotarod performance; assay type: in vivo, mouse; settings: 30 mg/kg IP, all four trials
# Procedure: as §1
# For rotarod experiments, male C57BL/6 mice (>90 days old) were tested using a Rotamax 4/8 rotarod (Columbus Instruments, Columbus, Ohio). Prior to training and testing, the mice were brought to the testing room and allowed to acclimate for two hours prior to any further handling. Mice were placed on a rotating rod (5 rpm), 3.8 cm in diameter and 8 cm wide, elevated 30 cm from the floor of a chamber. After 10 sec of rotation at a fixed velocity, the rotation was slowly accelerated from 5 to 35 rpm over a 5 min period. The duration of time that the mouse could stay on the rotarod, without hanging on for a full rotation or without falling, was recorded. Mice were trained 4 times at 25 min inter-trial intervals on each day for two days. On day three, mice were randomly assigned to treatment groups and administered test drug or vehicle (via IP administration) 25 min prior to testing (4 trials with inter-trial interval of 25 min). Individuals performing the experiment were blinded to the identity of each treatment group. Results were analyzed by ANOVA and Dunnett's post hoc test to compare duration of time on the rotating rod of drug-treated groups to the vehicle controls.
# [4] = test system: GluN2B; settings: between pH 6.8 and pH 7.5; cited from earlier work
# [5] = test system: nonhuman primates; settings: acute administration; cited from earlier work
# [6] = pH 6.9, read-out: IC50 (μM) pH 6.9
# [7] = pH 7.6, read-out: IC50 (μM) pH 7.6
SMILES,"IC50 [1, 6] [µM]","IC50 [1, 7] [µM]",pH Boost [1],also measured
CS(=O)(=O)Nc1ccc(OC[C@@H](O)CN2CCN(c3ccc(F)c(F)c3)CC2)cc1 [Compound 93-108],0.031,0.558,18.0,–
Oc1ccc(OC[C@@H](O)CN2CCN(c3ccc(F)c(F)c3)CC2)cc1 [Compound 10030],0.087,0.978,11.2,–
Oc1ccc(OC[C@@H](O)CN2CCN(c3ccccc3)CC2)cc1 [Compound 10039],0.217,0.476,2.2,–
Cc1ccc(N2CCN(C[C@H](O)COc3ccc(O)cc3)CC2)cc1 [Compound 10040],0.074,0.26,3.5,–
Oc1ccc(OC[C@H](O)CN2CCN(c3ccc(F)c(F)c3)CC2)cc1 [Compound 10052],0.05,0.272,5.4,–
NC(=O)Nc1ccc(OC[C@@H](O)CN2CCN(c3ccc(Cl)cc3)CC2)cc1 [Compound 10075],0.046,0.452,9.8,–
CC(C)c1ccc(N2CCN(C[C@H](O)COc3ccc(O)cc3)CC2)cc1 [Compound 10082],0.356,1.37,3.8,–
NC(=O)Nc1ccc(OC[C@@H](O)CN2CCN(c3ccc(Cl)c(Cl)c3)CC2)cc1 [Compound 10131],0.103,0.947,9.2,–
O=C1Cc2cc(OC[C@@H](O)CN3CCN(c4ccc(Cl)cc4)CC3)ccc2N1 [Compound 10146],0.029,0.37,12.8,–
NC(=O)Nc1ccc(OC[C@H](O)CN2CCN(c3ccc(Cl)cc3)CC2)cc1 [Compound 10165],0.019,0.06,3.2,–
NC(=O)Nc1ccc(OC[C@H](O)CN2CCN(c3ccc(Cl)c(Cl)c3)CC2)cc1 [Compound 10166],0.03,0.132,4.4,–
CCc1ccc(N2CCN(C[C@H](O)COc3ccc(O)cc3)CC2)cc1 [Compound 10171],0.046,0.316,6.9,–
CCc1ccc(N2CCN(C[C@H](O)COc3ccc(NC(N)=O)cc3)CC2)cc1 [Compound 10189],0.094,1,10.6,–
NC(=O)Nc1ccc(OC[C@@H](O)CN2CCN(c3ccc(F)cc3)CC2)cc1 [Compound 10214],0.221,2.18,9.9,–
CCCc1ccc(N2CCN(C[C@H](O)COc3ccc(NC(N)=O)cc3)CC2)cc1 [Compound 10215],0.13,1.3,10.0,–
CCc1ccc(N2CCN(C[C@@H](O)COc3ccc(NC(N)=O)cc3)CC2)cc1 [Compound 10222],0.052,0.183,3.5,–

SMILES,"IC50 [1, 6] [µM]","IC50 [1, 7] [µM]",pH Boost [1],also measured
CCCc1ccc(N2CCN(C[C@@H](O)COc3ccc(NC(N)=O)cc3)CC2)cc1 [Compound 10224],0.034,0.171,5.0,–
NC(=O)Nc1ccc(OC[C@H](O)CN2CCN(c3ccc(F)cc3)CC2)cc1 [Compound 10225],0.097,0.527,5.4,–
O=C1Cc2cc(OC[C@H](O)CN3CCN(c4ccc(Cl)cc4)CC3)ccc2N1 [Compound 10228],0.121,0.592,4.9,potency against GluN2B compared to corresponding S enantiomer [1]: lower potency
CS(=O)(=O)Nc1ccc(OC[C@H](O)CN2CCN(c3ccc(F)c(F)c3)CC2)cc1 [Compound 10233],0.047,0.294,6.3,potency against GluN2B compared to corresponding S enantiomer [1]: lower potency
CCCCc1ccc(N2CCN(C[C@H](O)COc3ccc(O)cc3)CC2)cc1 [Compound 10235],0.398,4.38,11.0,–
Oc1ccc(OC[C@H](O)CN2CCN(c3ccccc3)CC2)cc1 [Compound 10243],0.071,0.574,8.1,–
Cc1ccc(N2CCN(C[C@@H](O)COc3ccc(O)cc3)CC2)cc1 [Compound 10244],0.047,0.305,6.5,–
CCc1ccc(N2CCN(C[C@@H](O)COc3ccc(O)cc3)CC2)cc1 [Compound 10245],0.025,0.385,15.4,–
CC(C)c1ccc(N2CCN(C[C@@H](O)COc3ccc(O)cc3)CC2)cc1 [Compound 10247],0.144,0.675,4.7,–
CCCCc1ccc(N2CCN(C[C@@H](O)COc3ccc(O)cc3)CC2)cc1 [Compound 10249],0.549,3.42,6.2,potency against GluN2B compared to corresponding S enantiomer [1]: lower potency
NC(=O)Nc1ccc(OC[C@H](O)CN2CCN(c3ccc(C(F)(F)F)cc3)CC2)cc1 [Compound 10272],0.022,0.128,5.8,–
NC(=O)Nc1ccc(OC[C@@H](O)CN2CCN(c3ccc(C(F)(F)F)cc3)CC2)cc1 [Compound 10294],0.03,0.209,7.0,–
C[C@]12N[C@H](Cc3ccccc31)c1ccccc12 [MK-801],–,–,–,horizontal activity compared to the vehicle control [2]: significant increase
O=C1CCc2cc(OC[C@@H](O)CN3CCN(c4ccc(C(F)(F)F)cc4)CC3)ccc2N1 [NP10309],0.111,0.717,6.5,"IC50 ([1]; pH 6.9, read-out: IC50 value at pH 6.9): 0.111 µM; IC50 ([1]; pH 7.6, read-out: IC50 value at pH 7.6): 0.717 µM"
"CC(C(O)c1ccc(O)cc1)N1CCC(Cc2ccccc2)CC1 (stereo not drawn) [ifenprodil, reference compound]",–,–,–,latency-to-fall score [3]: significant reduction
C[C@@H]([C@@H](O)c1ccc(O)cc1)N1CCC(O)(c2ccccc2)CC1 [traxoprodil],–,–,–,pH sensitivity for inhibition of receptors [4]: does not possess a significant pH sensitivity; cognitive effects in nonhuman primates [5]: produced cognitive impairments in a dose-dependent manner
